Columns and labels:
[1] = system: TNF-α; experiment: TNF-α inhibitory effect in PBMC-derived monocyte (ELISA); type: cell-based, human; details: PBMC-derived monocytes, 4 μM peptide 2 hrs; for TNF-α inhibiting effect compared to the control group treated with only LPS: LPS 10 ng/ml 2 hours; for TNF-α inhibiting effect compared to the group treated with LPS and estrogen: LPS 10 ng/ml, estrogen 20 nM
Method: PBMC (peripheral blood mononuclear cells) layer was separated from blood samples (50 ml) collected in healthy subjects using Biocoll Separating Solution (Biochrom AG, Berlin, Germany). The collected PBMC were enriched in RPMI 1640 medium containing 20% human serum for 30 mins, and then transferred to 100-mm polystyeren cell culture plate coated with human serum for incubation for 2 hrs at 37° C., 5% CO^2 incubator. Monocytes were detached from the bottom of the plate using cold PBS, and incubated to reach the number of 1×10^5 cell/well in 96-well plate with RPMI 1640 medium (supplemented with penicillin-streptomycin; 100 mg/ml, human serum; 20%) over night.
ELISA was performed to find out how the peptides of the PEP RIA series influence TNF-α level. PBMC-derived monocytes were incubated to reach the number of 1×10^5 cells per well in a 96-well plate and then treated with LPS (lipopolysaccharide; 10 ng/ml, Sigma) for 2 hours. To the monocytes that were washed three times with PBS, OPTI-MEM culture medium was added to induce cell starvation for an hour, 4 μM of the peptide was taken out and incubated for 2 hours. There were three negative control groups. The first group was not treated with anything. The second group that was treated with estrogen (in this experiment, estradiol was used as a kind of estrogen). The third group was treated with LPS (10 ng/ml) or with LPS (10 ng/ml) as well as estrogen (20 nM). PEP1 that was confirmed to have TNF-α inhibiting activity was used as a positive control to measure TNF-α inhibiting activity. After incubation, TNF-α was measured by following the ELISA kit manual (R&D, Minneapolis, Minn., USA). The details of quantification method can be found in Experiment 2.2 of Example 1.
Using the method stated above, Peptides with TNF-α inhibiting effect were screened. PBMC-derived monocytes were stimulated with LPS (10 ng/ml), which is endotoxin, for 2 hours and were induced to starve by adding OPTI-MEM for 1 hour. After that, 4 μM of 161 peptides were treated and incubated for 2 hrs. The amount of TNF-α in the cell culture medium was measured using ELISA, and the peptides with TNF-α inhibiting effect were screened by comparing to the negative and positive controls (FIG. 1 to FIG. 16).

[2] = system: TNF-α; experiment: TNF-α level in THP1 cell line differentiated by PMA (ELISA); type: cell-based, human; details: THP-1 differentiated by PMA, 1 μM peptide 1 hour; for reduction of TNF-α level compared to control group treated only with LPS: LPS 10 ng/ml 2 hours; for reduction of expression level of TNF-α compared to group treated with LPS and estrogen: LPS 10 ng/ml
Method: Experiment was carried out using THP-1 cell line (American Type Culture Collection (ATCC), Manassas, Va., USA) which is human acute monocytic leukemia.
THP-1 cells were incubated to reach the number of 1×10^5 cells per well in a 96-well plate with RPMI 1640 medium for 24 hrs, followed by addition of […] of PMA (phorbol 12-myristate 13-acetate) for the differentiation into macrophage. After differentiation of THP-1 into macrophage by PMA for a day, LPS was treated for 2 hrs and washed off. Starvation for an hour and PEP1 treatment followed.
THP-1 cell differentiated by PMA was treated with LPS (lipopolysaccharide; 10 ng/ml, Sigma) for 2 hours, followed by 2 times washes with PBS. To the cells, OPTI-MEM culture medium was added to induce cell starvation for an hour, and 1 μM of 161 peptides was taken out and incubated for an hour. After incubation, TNF-α level was measured by using the ELISA kit and the peptides which reduce the TNF-α level were screened (FIG. 17 to FIG. 35).

| Sequence | TNF-α inhibiting effect compared to the control group treated with only LPS [1] | TNF-α inhibiting effect compared to the group treated with LPS and estrogen [1] | reduction of TNF-α level compared to control group treated only with LPS [2] | reduction of expression level of TNF-α compared to group treated with LPS and estrogen [2] |
| --- | --- | --- | --- | --- |
| SGPRRRLGCERAWMHSVREA (SGPRRRLGCERAWNHSVREA; listed as Homo sapiens) [SEQ ID NO: 115] | showed TNF-α inhibiting effect |  |  |  |
| EDTDPRRLVQLLRQHSSPWQ (listed as Homo sapiens) [SEQ ID NO: 70] |  | showed TNF-α inhibiting effect | appeared to reduce the TNF-α level |  |
| LGLDDIHRAWRTFVLRVRAQ (listed as Homo sapiens) [SEQ ID NO: 82] |  | showed TNF-α inhibiting effect |  |  |
| LFSVLNYERARRPGLLGASV (listed as Homo sapiens) [SEQ ID NO: 81] |  | showed TNF-α inhibiting effect |  |  |
| LLVTPHLTHAKTFLRTLVRG (listed as Homo sapiens) [SEQ ID NO: 149] | showed TNF-α inhibiting effect | showed TNF-α inhibiting effect | appeared to reduce the TNF-α level |  |
| AERLTSRVKALFSVL (listed as Homo sapiens) [SEQ ID NO: 9] | showed TNF-α inhibiting effect |  | appeared to reduce the TNF-α level | reduce the expression level of TNF-α |
| LLGASVLGL (listed as Homo sapiens) [SEQ ID NO: 11] | showed TNF-α inhibiting effect |  |  |  |
| VLGLDDIHRA (listed as Homo sapiens) [SEQ ID NO: 12] |  |  | appeared to reduce the TNF-α level | reduce the expression level of TNF-α |
| WMPGTPRRLPRLPQRYWQMR (listed as Homo sapiens) [SEQ ID NO: 124] | showed TNF-α inhibiting effect |  |  |  |
| FFLRVISDTASLCYSILKAK (listed as Homo sapiens) [SEQ ID NO: 157] |  |  |  | reduce the expression level of TNF-α |
| QWLCHQAFLLKLTRHRVTTV (QWLCHQAFLLKLTRHRVTYV; listed as Homo sapiens) [SEQ ID NO: 159] |  |  |  | reduce the expression level of TNF-α |
| MPRAPRCRAVRSLLRSHYRE (listed as Homo sapiens) [SEQ ID NO: 48] |  | showed TNF-α inhibiting effect |  |  |
| DEALGGTAFVQMPAHGLFPW (listed as Homo sapiens) [SEQ ID NO: 151] |  |  | appeared to reduce the TNF-α level |  |
| CGPPLYQLGAATQARPPPHA (listed as Homo sapiens) [SEQ ID NO: 114] |  |  | appeared to reduce the TNF-α level |  |
| RTRGPSDRGFCVVSPARPAE (listed as Homo sapiens) [SEQ ID NO: 61] |  | showed TNF-α inhibiting effect |  |  |
| SVLGLDDIH (listed as Homo sapiens) [SEQ ID NO: 30] |  |  | appeared to reduce the TNF-α level | reduce the expression level of TNF-α |
| RTFVLRVRAQDPPPE (listed as Homo sapiens) [SEQ ID NO: 7] |  |  | appeared to reduce the TNF-α level | reduce the expression level of TNF-α |

| Sequence | TNF-α inhibiting effect compared to the control group treated with only LPS [1] | TNF-α inhibiting effect compared to the group treated with LPS and estrogen [1] | reduction of TNF-α level compared to control group treated only with LPS [2] | reduction of expression level of TNF-α compared to group treated with LPS and estrogen [2] |
| --- | --- | --- | --- | --- |
| YERARRPGL (listed as Homo sapiens) [SEQ ID NO: 10] |  |  | appeared to reduce the TNF-α level | reduce the expression level of TNF-α |
| AQCPYGVLLKTHCPLRAAVT (listed as Homo sapiens) [SEQ ID NO: 68] |  |  | appeared to reduce the TNF-α level |  |
| GVPLGLPSPGARRRGGSASR (GVPLGLPAPGARRRGGSASR; listed as Homo sapiens) [SEQ ID NO: 116] | showed TNF-α inhibiting effect |  |  |  |
| RFMCHHAVRIRGKSYVQCQG (listed as Homo sapiens) [SEQ ID NO: 146] | showed TNF-α inhibiting effect | showed TNF-α inhibiting effect | appeared to reduce the TNF-α level |  |
| SRPPRPWDTPCPPVYAETKH (listed as Homo sapiens) [SEQ ID NO: 121] |  | showed TNF-α inhibiting effect |  |  |
| GLLGASVLG (listed as Homo sapiens) [SEQ ID NO: 29] |  | showed TNF-α inhibiting effect | appeared to reduce the TNF-α level | reduce the expression level of TNF-α |
| RLPQRYWQMRPLFLELLGNH (listed as Homo sapiens) [SEQ ID NO: 67] |  |  | appeared to reduce the TNF-α level |  |
| FHQQVWKNPTFFLRVISDTA (listed as Homo sapiens) [SEQ ID NO: 99] |  | showed TNF-α inhibiting effect |  |  |
| LKRVQLRELSEAEVRQ (listed as Homo sapiens) [SEQ ID NO: 47] |  | showed TNF-α inhibiting effect |  |  |
| QMPAHGLFPWCGLLLDTRTL (listed as Homo sapiens) [SEQ ID NO: 94] |  |  | appeared to reduce the TNF-α level |  |
| RFHACVLQLPFHQQVWKNPT (listed as Homo sapiens) [SEQ ID NO: 156] |  |  |  | reduce the expression level of TNF-α |
| GTRHSHPSVGRQHHAGPPST (listed as Homo sapiens) [SEQ ID NO: 120] |  | showed TNF-α inhibiting effect |  |  |
| NRGFKAGRNMRRKLFGVLRL (listed as Homo sapiens) [SEQ ID NO: 96] | showed TNF-α inhibiting effect | showed TNF-α inhibiting effect |  |  |
| SVLNYERARR (listed as Homo sapiens) [SEQ ID NO: 15] |  |  | appeared to reduce the TNF-α level | reduce the expression level of TNF-α |
| GASVLGLDDI (listed as Homo sapiens) [SEQ ID NO: 13] |  |  | appeared to reduce the TNF-α level | reduce the expression level of TNF-α |
| NKLFAGIRRDGLLLRLVDDF (listed as Homo sapiens) [SEQ ID NO: 148] | showed TNF-α inhibiting effect | showed TNF-α inhibiting effect | appeared to reduce the TNF-α level |  |

From patent US11098294B2, “Anti-inflammatory peptides and composition comprising same” (GemVax & KAEL Co., Ltd., priority 2012, dated 2021)
